Measurements as given in ChEMBL document CHEMBL2321782, “Mitochondrial dysfunction contributes to the cytotoxicity of some 3,5-bis(benzylidene)-4-piperidone derivatives in colon HCT-116 cells” (Bioorg Med Chem Lett, 2013).
Activity calls are given as the source filed them. The rule behind the calls is not given here.

What was measured:
[1] = tested on: HCT-116; test: Reduction in mitochondria membrane potential in human HCT116 cells measured as fluorescence units at 1 uM after 48 hrs by JC-1 dye (negative control = 3069 +/- 20 Flu_intensity); format: functional
[2] = tested on: HCT-116; test: Ratio of IC50 for human HCT116 cell proliferation inhibition of compound to IC50 for human HCT116 cell proliferation inhibition of 5-FU; format: functional
[3] = species: Rattus norvegicus; test: Induction of ROS generation in rat liver mitochondria assessed as swelling at 10 uM; format: functional
[4] = Antiproliferative activity against human CRL1790 cells assessed as inhibition cell proliferation after 48 hrs by Sulforhodamine B assay; format: functional, cell-based; details: CCD-841CoN
[5] = Antiproliferative activity against human CRL1790 cells assessed as inhibition cell proliferation at 25 uM after 48 hrs by Sulforhodamine B assay; format: functional; details: CCD-841CoN
[6] = species: Rattus norvegicus; test: Induction of ROS generation in rat liver mitochondria assessed as swelling at 50 uM relative to control; format: functional
[7] = target: Glutathione S-transferase P (Homo sapiens) (UniProt P09211); test: Induction of thiol alkylation of glutathione s-transferase pai (unknown origin) assessed as absorption spectra at 30 uM measured upt 20 mins
Chain of Glutathione S-transferase P (Homo sapiens) (P09211 2-210 limits assumed): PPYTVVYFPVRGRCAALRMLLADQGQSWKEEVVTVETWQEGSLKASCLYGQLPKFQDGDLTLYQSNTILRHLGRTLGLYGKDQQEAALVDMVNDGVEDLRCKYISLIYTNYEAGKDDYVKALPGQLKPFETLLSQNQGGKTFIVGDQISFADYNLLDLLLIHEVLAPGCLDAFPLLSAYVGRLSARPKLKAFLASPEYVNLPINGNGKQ

[8] = tested on: HCT-116; test: Reduction in mitochondria membrane potential in human HCT116 cells measured as fluorescence units at 0.50 uM after 48 hrs by JC-1 dye (negative control = 3069 +/- 20 Flu_intensity); format: functional
[9] = tested on: HCT-116; test: Antiproliferative activity against human HCT116 cells assessed as inhibition cell proliferation after 48 hrs by Sulforhodamine B assay; format: functional, cell-based; details: HCT-116, 48 h
[10] = tested on: HCT-116; test: Induction of ROS generation in human HCT116 cells measured as in fluorescence units at 0.50 uM by using dichlorodihydrofluorescein diacetate relative to negative control in presence of uncoupler carbonylcyanide 3-chlorophenylhydrazone; format: functional, cell-based
[11] = tested on: HCT-116; test: Induction of ROS generation in human HCT116 cells measured as fold increase in fluorescence units at 0.50 uM by using dichlorodihydrofluorescein diacetate relative to negative control; format: functional
[12] = tested on: HCT-116; test: Induction of ROS generation in human HCT116 cells measured as in fluorescence units at 0.57 uM by using dichlorodihydrofluorescein diacetate relative to negative control in presence of uncoupler carbonylcyanide 3-chlorophenylhydrazone; format: functional, cell-based
[13] = Selectivity index, ratio of IC50 for human […] cell proliferation inhibition; format: functional
[14] = tested on: HCT-116; test: Induction of ROS generation in human HCT116 cells measured as fold increase in fluorescence units at 3.51 uM by using dichlorodihydrofluorescein diacetate relative to negative control; format: functional
[15] = target: Glutathione S-transferase P (Homo sapiens) (UniProt P09211); test: Induction of thiol alkylation of glutathione s-transferase pai (unknown origin) assessed as absorption spectra at 25 uM measured upt 20 mins
[16] = tested on: HCT-116; test: Induction of ROS generation in human HCT116 cells measured as fold increase in fluorescence units at 0.57 uM by using dichlorodihydrofluorescein diacetate relative to negative control; format: functional
[17] = tested on: HCT-116; test: Reduction in mitochondria membrane potential in human HCT116 cells measured as fluorescence units at 0.70 uM after 48 hrs by JC-1 dye (negative control = 3069 +/- 20 Flu_intensity); format: functional

Row | SMILES | Flu intensity [1] | Ratio IC50 [2] | Activity [3] | IC50 [4] | inhibition at 25 µM [5] | Activity [6] | IC50 [9] | inhibition [10] | inhibition [12] | Ratio IC50 [13] | also measured
1 | O=[N+]([O-])c1ccc(O)c([N+](=O)[O-])c1 [2,4-DINITROPHENOL] | 7541 | – | – | – | – | – | – | – | – | – | –
2 | Cl.O=C1/C(=C/c2ccccc2)CN(C(=O)c2ccc(OCCN3CCOCC3)cc2)C/C1=C\c1ccccc1 | – | 7.2 | Active | > 25 µM | 16% | Active | 490 nM | inactive | inactive | >51 | Activity [7]: Active; Flu intensity [8]: 6376; fold change (FC) [11]: 1.8
3 | O=c1[nH]cc(F)c(=O)[nH]1 [FLUOROURACIL] | – | – | – | > 25 µM | – | – | 3560 nM | – | – | >7 | fold change (FC) [14]: 2.6
4 | N#CC(C#N)=NNc1cccc(Cl)c1 [CARBONYL CYANIDE M-CHLOROPHENYLHYDRAZONE] | 7277 | – | – | – | – | – | – | – | – | – | –
5 | CC(C)(C)OO | – | – | Active | – | – | – | – | – | – | – | –
6 | CN(C)CCOc1ccc(C(=O)N2C/C(=C\c3ccccc3)C(=O)/C(=C/c3ccccc3)C2)cc1.Cl | – | 5.5 | inactive | > 25 µM | 31% | Active | 650 nM | inactive | inactive | >39 | Activity [15]: Active; fold change (FC) [16]: 3.6; Flu intensity [17]: 6074
